{"source": "patent US8796326B1", "about": "“Fire ant killer (F.A.K.)/ insecticide” (priority 2008, dated 2014)", "origin": "cited, not measured here", "tested_on": "bacterial contamination on the hands and on treated products", "data": [{"compound": "Oc1cc(Cl)ccc1Oc1ccc(Cl)cc1Cl", "note": "[Triclosan, 5-chloro-2-(2,4-dichlorophenoxy)phenol]", "values": [{"measurement": "reducing and controlling bacterial contamination", "value": "effective"}]}]}
